Assay results from ChEMBL document CHEMBL1140802 (Bioorg Med Chem Lett, 2008).

Assay: Blockade of CNGA1/CNGB1 expressed in Xenopus oocyte by electrophysiological method

Row | Structure (SMILES) | Kd
1 | CCCCNc1ccc(C(=O)OCCN(CC)CC)cc1 [P-BUTYLAMINOBENZOYLDIETHYLAMINOETHYL] | 8.5 µM
2 | CCCCNc1ccc(C(=O)OCCCN(C)C)cc1 | 5 µM
3 | CC(C)CNc1ccc(C(=O)OCCN(C)C)cc1 | 20 µM
4 | CCCCNc1ccc(C(=O)OCCCN(CCCC)CCCC)cc1 | 1.3 µM
5 | CCCCNc1ccc(C(=O)OCCCN(CC)CC)cc1 | 5.6 µM
6 | CCCCCCCCNc1ccc(C(=O)OCCN(C)C)cc1 | 1.3 µM

The next lines start with the values.

Row | Kd | Structure (SMILES)
7 | 1.1 µM | CCCCNc1ccc(C(=O)OCCN(CCCC)CCCC)cc1
8 | 3.8 µM | CCCCCCNc1ccc(C(=O)OCCN(C)C)cc1
9 | 7.1 µM | CCCCNc1ccc(C(=O)OCCCCN(C)C)cc1
10 | 16 µM | CN(C)CCOC(=O)c1ccc(NCc2ccccc2)cc1
11 | 1.6 µM | CCCCCCCCNc1ccc(C(=O)OCC[N+](C)(C)CC)cc1
12 | 17 µM | CN(C)CCOC(=O)c1ccc(NC2CCCCC2)cc1
13 | 1.3 µM | CCCCNc1ccc(C(=O)OCCCCN(CCCC)CCCC)cc1
